# Assay results: patent US20230129485A1, “SYSTEM AND METHOD FOR DETERMINING MATERIAL PROPERTIES OF MOLECULAR SYSTEMS FROM AN AB-INITIO PARAMETERIZED FORCE-FIELD” (InterX, Inc., priority 2021, published 2023)
# Read-outs that look alike come from different tables or passages of the source.
# Experiments:
# [1] = Free energy of hydration predicted with the QM-parameterized force field model (ARROW FF), classical MD and PIMD simulation in a water box; conditions: for Arrow PIMD8 Error: absolute error vs Exp (hydration); for Arrow error: Table 5, error of Arrow PIMD8 hydration free energy vs experiment
# How it was run: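 Classical and PIMD runs (MTS integrator, MTTK barostat at 1 atm) followed minimization and 50 ps equilibration, with 1 ns NPT production per window. Fifteen unequally spaced lambda windows removed all solute-solvent interactions simultaneously in a 32 Å water box. Hydration free energy computed by Bennett acceptance ratio and thermodynamic integration.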
# [2] = CHEX/H2O partition coefficient (log D) predicted with the QM-parameterized force field model (ARROW FF)
# How it was run: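 Cyclohexane/water partition coefficients were predicted by molecular simulation with a QM-parameterized force field, with bonded force constants and equilibrium values fitted to MP2/aug-cc-pVTZ energies. Solutes carried neutral functional groups, and results from four independent groups were averaged.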
# [3] = Bulk solvent properties (density, heat of vaporization, self-solvation) predicted with the QM-parameterized force field model (AFF MD / PIMD)
# Source text: Particle-Mesh Ewald (PME) algorithm was used to compute the electrostatic interactions. A 32×32×32 grid mesh and 5th power spline interpolation order can be used to compute the inverse PME sum. 9 Å cutoffs were used to compute the direct PME sum as well as the exchange and dispersion interactions. Bulk corrections were applied to account for distance cut-off of dispersion interactions. Solvation free energies were computed by decoupling the interactions between the solute and the solvent molecules. Electrostatic, exchange-repulsion and dispersion interactions were switched off simultaneously using a lambda-dependent scaling (a scaling factor power=2 was used) and a soft-coring algorithm (maximal soft-coring radius=1.5 Å, soft-coring radius scaling factor power=1). 15 lambda points unequally spaced (X=0, 0.05, 0.1, 0.2, 0.3, 0.4, 0.5, 0.6, 0.7, 0.75, 0.8, 0.85, 0.9, 0.95, 1.0) were used to decouple the solute-solvent intermolecular interactions.
# In some simulations of the QM-parameterized force field molecular simulation process, energy minimization (10,000 steps) using the steepest descent algorithm was initially performed on all the simulation systems. This was followed by a 50 ps equilibration and 1 ns production runs in the isothermal-isobaric ensemble (NPT). […] Pressure was maintained at 1 atm using a MTTK barostat (relaxation time=5 ps). […]
# [4] = Free energy of hydration by COSMO implicit solvent model (MolPro ver. 2012); conditions: absolute error vs Exp (hydration)
# How it was run: (§1)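 Implicit-solvent predictions of hydration free energy. MolPro supplied the COSMO solvation energies across the dataset. Predicted SMD and PCM values were received rather than computed here. Coverage for SMD, PCM and COSMO-RS matches the QM-parameterized force-field subset.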
# [5] = Free energy of hydration by Solvation Model Dielectric (SMD) implicit solvent model; conditions: absolute error vs Exp (hydration)
# How it was run: as §1
# [6] = Free energy of hydration by Polarizable Continuum Model (PCM); conditions: absolute error vs Exp (hydration)
# How it was run: as §1
# [7] = Free energy of hydration by COSMO-RS
# How it was run: as §1
# [8] = experimental, cited from earlier work; for Exp (hydration): Table 5
# [9] = experimental, cited from earlier work
# [10] = experimental; cited from earlier work
# [11] = implicit solvent model, values received; cited from earlier work
# [12] = implicit solvent model, values received; cited from earlier work; remark: listed apart in the source
# [13] = CHEX/H2O partition coefficient, experimental, cited from earlier work; for Exp (log D): Table 3; for logD Exp (logD): Table 4
# [14] = Free energy of solvation in cyclohexane predicted with the QM-parameterized force field model (ARROW FF), MD and PIMD; conditions: Table 4; for CHEX Arrow MD Error: error of MD cyclohexane solvation free energy vs experiment; for CHEX Arrow PIMD4 Error: error of PIMD4 cyclohexane solvation free energy vs experiment
# How it was run: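 Solute–cyclohexane interactions decoupled over 15 λ points with soft-core scaling, in MD and path-integral simulations under NPT at 1 atm using PME electrostatics and 9 Å cutoffs. Each window had 50 ps equilibration and 1 ns production; free energies from BAR and TI.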
# [15] = Free energy of hydration predicted by General Amber Force Field (GAFF), from literature; conditions: Table 5; error of GAFF hydration free energy vs experiment
# [16] = Free energy of hydration predicted by polarizable AMOEBA force field, from literature; conditions: Table 5; error of AMOEBA hydration free energy vs experiment
# [17] = Free energy of hydration by Free Energy Machine Learning Model (FML); conditions: absolute error vs Exp (hydration)
# Source text: Machine learning models can be used for free energy determination.
# [18] = Table 5; free energy of hydration, GAFF prediction taken from literature; cited from earlier work
# [19] = Table 5; free energy of hydration, AMOEBA prediction taken from literature; cited from earlier work
# [20] = Table 3, absolute error of MD hydration free energy vs experiment
# [21] = Table 3, absolute error of PIMD8 hydration free energy vs experiment
# [22] = Table 3, free energy of hydration
# [23] = Table 3, free energy of solvation in cyclohexane
# [24] = Table 4, error of MD hydration free energy vs experiment
# [25] = Table 4, error of PIMD8 hydration free energy vs experiment
# [26] = Table 4, neutral amino-acid analogues
# [27] = Table 4, solvation free energy in cyclohexane
Structure (SMILES),"water Arrow MD Error [1, 20]","water Arrow PIMD8 Error [1, 21]",Arrow PIMD8 Error [1],log D Arrow MD Error [2],log D Arrow PIMD Error [2],COSMO/Molpro Error [4],SMD Error [5],PCM Error [6],COSMO-RS error [7],"water Exp (hydration) [8, 22]","CHEX Exp (solvation) [9, 23]",SMD free energy of hydration [11],PCM free energy of hydration [12],Exp (log D) [13],Arrow error [1],GAFF error [15],AMOEBA error [16],Exp (hydration) ([8]; free energy of hydration),GAFF [18],AMOEBA [19],other results
C1CCCCC1 [Cyclohexane],4.31 kJ/mol,0.418 kJ/mol,0.418 kJ/mol,0.89,0.36,7.15 kJ/mol,0.711 kJ/mol,5.56 kJ/mol,0.418 kJ/mol,5.15 kJ/mol,-18.5 kJ/mol,5.86 kJ/mol,-0.418 kJ/mol,4.14,,,,,,,agreement of bulk energetics ([3]; within chemical accuracy): ≤ 2.1 kJ/mol; Hydration [8]: 5.02 kJ/mol; Density [10]: 0.790 g/cc; Hvap [10]: 33.1 kJ/mol; self-solvation [10]: -18.5 kJ/mol
C [Methane],1.34 kJ/mol,0.38 kJ/mol,0.38 kJ/mol,0.25,0.09,9.83 kJ/mol,1 kJ/mol,8.62 kJ/mol,0.837 kJ/mol,8.2 kJ/mol,0.586 kJ/mol,9.2 kJ/mol,-0.418 kJ/mol,1.33,0.38 kJ/mol,1 kJ/mol,0.962 kJ/mol,8.2 kJ/mol,9.2 kJ/mol,7.24 kJ/mol,"water Arrow MD Error [1, 24]: 1.34 kJ/mol; water Arrow PIMD8 Error [1, 25]: 0.38 kJ/mol; CHEX Arrow MD Error [14]: 0.042 kJ/mol; CHEX Arrow PIMD4 Error [14]: 0.17 kJ/mol; logD Arrow MD Error [2]: 0.25; logD Arrow PIMD Error [2]: 0.09; FML error [17]: 6.65 kJ/mol; water Exp (hydration) [8, 26]: 8.2 kJ/mol; CHEX Exp (solvation) [9, 27]: 0.586 kJ/mol; logD Exp (logD) [13]: 1.33"
CCC [Propane],2.76 kJ/mol,0 kJ/mol,0 kJ/mol,0.31,0.04,10.2 kJ/mol,0.669 kJ/mol,8.62 kJ/mol,0.21 kJ/mol,8.2 kJ/mol,-8.49 kJ/mol,7.53 kJ/mol,-0.418 kJ/mol,2.93,0 kJ/mol,2.51 kJ/mol,1.13 kJ/mol,8.2 kJ/mol,10.7 kJ/mol,7.07 kJ/mol,"water Arrow MD Error [1, 24]: 2.76 kJ/mol; water Arrow PIMD8 Error [1, 25]: 0 kJ/mol; CHEX Arrow MD Error [14]: 0.962 kJ/mol; CHEX Arrow PIMD4 Error [14]: 0.21 kJ/mol; logD Arrow MD Error [2]: 0.31; logD Arrow PIMD Error [2]: 0.04; FML error [17]: 2.09 kJ/mol; water Exp (hydration) [8, 26]: 8.2 kJ/mol; CHEX Exp (solvation) [9, 27]: -8.49 kJ/mol; logD Exp (logD) [13]: 2.93"
O [Water],2.13 kJ/mol,0.711 kJ/mol,0.711 kJ/mol,0.31,0.17,9.58 kJ/mol,7.11 kJ/mol,6.69 kJ/mol,10.6 kJ/mol,-26.4 kJ/mol,-1.63 kJ/mol,-33.5 kJ/mol,-19.7 kJ/mol,−4.33,0.711 kJ/mol,1.09 kJ/mol,1.84 kJ/mol,-26.4 kJ/mol,-25.3 kJ/mol,-24.5 kJ/mol,"agreement of predicted bulk properties with experimental values ([3]; density, heat of vaporization, self-solvation, PIMD8): ≤ 3%; Hydration [8]: -26.4 kJ/mol; Density [10]: 0.997 g/cc; Hvap [10]: 43.97 kJ/mol; self-solvation [10]: -26.4 kJ/mol"
